Source: patent US20230295114A1, “AKT3 MODULATORS” (Georgiamune LLC, priority 2020, published 2023)

What was measured:
[1] = molecular target: T1, Akt3 (Homo sapiens, UniProt Q9Y243); assay: Akt3 activation activity of selected compounds; assay type: cell-based
T1 construct: endogenous in cells

[2] = molecular target: T1, Akt3; assay: Akt3 inhibition activity of selected compounds; assay type: cell-based

T1 sequence (Q9Y243 whole entry): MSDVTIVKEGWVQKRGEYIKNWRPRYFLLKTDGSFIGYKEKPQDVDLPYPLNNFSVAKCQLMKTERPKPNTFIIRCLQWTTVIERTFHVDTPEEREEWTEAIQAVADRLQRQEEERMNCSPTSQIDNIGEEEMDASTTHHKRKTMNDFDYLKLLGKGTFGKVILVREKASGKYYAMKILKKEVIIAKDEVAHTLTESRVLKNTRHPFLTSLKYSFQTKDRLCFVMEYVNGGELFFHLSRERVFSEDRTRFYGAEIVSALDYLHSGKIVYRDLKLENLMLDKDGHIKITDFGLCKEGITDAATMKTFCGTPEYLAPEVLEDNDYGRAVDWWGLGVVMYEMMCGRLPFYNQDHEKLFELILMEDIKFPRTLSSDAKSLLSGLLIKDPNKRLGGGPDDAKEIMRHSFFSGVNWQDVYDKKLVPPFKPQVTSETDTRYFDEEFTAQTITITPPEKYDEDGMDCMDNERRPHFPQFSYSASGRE

Compound	EC50 [1]	IC50 [2]
Cc1cc(Nc2ccc3[nH]c(-c4ccc(Nc5ccnc6ccc(N7CCOCC7)cc56)nc4)nc3c2)ccn1 [Compound 71, N-(5-(5-((2-methylpyridin-4-yl)amino)-1H-benzo[d]imidazol-2-yl)pyridin-2-yl)-6-morpholinoquinolin-4-amine]	< 50 nM	
Cc1cc(Nc2ccc(C(=O)Nc3cccc(Nc4ccnc(C)c4)c3)cc2)ccn1 [Compound 23, 4-((2-methylpyridin-4-yl)amino)-N-(3-((2-methylpyridin-4-yl)amino)phenyl)benzamide]		< 2000 nM
O=C(Nc1cccc(Nc2ccnc(F)c2)c1)c1ccc(Nc2ccncc2)cc1 [Compound 31, N-(3-(2-fluoropyridin-4-ylamino)phenyl)-4-(pyridin-4-ylamino)benzamide]		< 1000 nM
Cc1cc(Nc2ccc3[nH]c(-c4ccc(Nc5cc(C)nc6ccc(N7CC(C)OC(C)C7)cc56)cn4)nc3c2)ccn1 (stereo not drawn) [Compound 77, 6-(2,6-dimethylmorpholino)-2-methyl-N-(6-(5-(2-methylpyridin-4-ylamino)-1H-benzo[d]imidazol-2-yl)pyridin-3-yl)quinolin-4-amine]	< 50 nM	
Cc1cc(Nc2cccc(NC(=O)c3ccc(Nc4ccncc4)cc3)c2)cc(N)n1 [Compound 94, N-(3-(2-amino-6-methylpyridin-4-ylamino)phenyl)-4-(pyridin-4-ylamino)benzamide]		< 2000 nM
Cc1cc(Nc2ccc3[nH]c(-c4ccc(Nc5cc(C)nc6ccc(N7CCOCC7)cc56)nc4)nc3c2)ccn1 [Compound 73, 2-methyl-N-(5-(5-(2-methylpyridin-4-ylamino)-1H-benzo[d]imidazol-2-yl)pyridin-2-yl)-6-morpholinoquinolin-4-amine]	< 50 nM	
O=C(Nc1cccc(Nc2ccncc2)c1)c1ccc(Nc2ccnc3ccc(F)cc23)cc1 [Compound 2, 4-((6-fluoroquinolin-4-yl)amino)-N-(3-(pyridin-4-ylamino)phenyl)benzamide]		< 1000 nM
Cc1cnc2ccccc2c1Nc1ccc(C(=O)Nc2cccc(Oc3ccncc3)c2)cc1 [Compound 13, 4-((3-methylquinolin-4-yl)amino)-N-(3-(pyridin-4-yloxy)phenyl)benzamide]		< 5000 nM
Cc1cc(Nc2ccc3[nH]c(-c4ccc(Nc5cc(C)nc6ccc(N7CCOCC7)cc56)cn4)nc3c2)ccn1 [Compound 74, 2-methyl-N-(6-(5-(2-methylpyridin-4-ylamino)-1H-benzo[d]imidazol-2-yl)pyridin-3-yl)-6-morpholinoquinolin-4-amine]	< 50 nM	
N#Cc1cc(Nc2cccc(NC(=O)c3ccc(Nc4ccncc4)cc3)c2)ccn1 [Compound 30, N-(3-(2-cyanopyridin-4-ylamino)phenyl)-4-(pyridin-4-ylamino)benzamide]		< 5000 nM
Cc1cnc2ccccc2c1Nc1ccc(C(=O)Nc2cccc(Nc3ccncc3)c2)cc1 [Compound 14, 4-((3-methylquinolin-4-yl)amino)-N-(3-(pyridin-4-ylamino)phenyl)benzamide]		< 500 nM
Cc1cc(Nc2ccc3[nH]c(-c4ccc(Nc5ccnc6ccc(N(C)C)cc56)cc4)nc3c2)ccn1 [Compound 37, N^6,N^6-dimethyl-N^4-(4-(5-((2-methylpyridin-4-yl)amino)-1H-benzo [d]imidazol-2-yl)phenyl)quinoline-4,6-diamine]	< 5000 nM	
Cc1cc(Nc2cccc(NC(=O)c3ccc(Nc4ccncc4)cc3)c2)ccn1 [Compound 22, N-(3-((2-methylpyridin-4-yl)amino)phenyl)-4-(pyridin-4-ylamino)benzamide]		< 2000 nM
O=C(Nc1cccc(Nc2ccncc2)c1)c1ccc(Nc2ccnc3ccccc23)cc1 [Compound 5, N-(3-(pyridin-4-ylamino)phenyl)-4-(quinolin-4-ylamino)benzamide]		< 2000 nM
O=C(Nc1cc(Nc2ccncc2)ccn1)c1ccc(Nc2ccncc2)cc1 [Compound 24, 4-(pyridin-4-ylamino)-N-(4-(pyridin-4-ylamino)pyridin-2-yl)benzamide]		< 5000 nM
Cc1cc(Nc2ccc3[nH]c(-c4ccc(Nc5ccnc6ccc(N7CCOCC7)cc56)cn4)nc3c2)ccn1 [Compound 69, N-(6-(5-((2-methylpyridin-4-yl)amino)-1H-benzo[d]imidazol-2-yl)pyridin-3-yl)-6-morpholinoquinolin-4-amine]	< 20 nM	
Cc1cc(Nc2ccc3[nH]c(-c4ccc(Nc5cc(C)nc6ccc(N7CCOCC7)cc56)cn4)nc3n2)ccn1 [Compound 70, 2-methyl-N-(6-(5-(2-methylpyridin-4-ylamino)-1H-imidazo [4,5-b]pyridin-2-yl)pyridin-3-yl)-6-morpholinoquinolin-4-amine]	< 2000 nM	
Nc1cc(Nc2cccc(NC(=O)c3ccc(Nc4ccncc4)cc3)c2)ccn1 [Compound 93, N-(3-(2-aminopyridin-4-ylamino)phenyl)-4-(pyridin-4-ylamino)benzamide]		< 2000 nM
O=C(Nc1cccc(Nc2ccncc2)c1)c1ccc(Nc2ccncc2)cc1 [Compound 10, 4-(pyridin-4-ylamino)-N-(3-(pyridin-4-ylamino)phenyl)benzamide]		< 1000 nM
Cc1cc(Nc2ccc3[nH]c(-c4ccc(Nc5ccnc6ccc(N7CC(C)OC(C)C7)cc56)cc4)nc3c2)ccn1 (stereo not drawn) [Compound 75, 6-(2,6-dimethylmorpholino)-N-(4-(5-((2-methylpyridin-4-yl)amino)-1H-benzo[d]imidazol-2-yl)phenyl)quinolin-4-amine]	< 20 nM	
Cc1ccc2c(Nc3ccc(C(=O)Nc4cccc(Oc5ccncc5)c4)cc3)ccnc2c1 [Compound 17, 4-((7-methylquinolin-4-yl)amino)-N-(3-(pyridin-4-yloxy)phenyl)benzamide]		< 5000 nM
Cc1c(Nc2cccc(NC(=O)c3ccc(Nc4ccncc4)cc3)c2)ccnc1N [Compound 92, N-(3-(2-amino-3-methylpyridin-4-ylamino)phenyl)-4-(pyridin-4-ylamino)benzamide]		< 5000 nM
Cc1cc(Nc2ccc3[nH]c(-c4ccc(Nc5cc(C)nc6ccc(N7CC(C)OC(C)C7)cc56)cc4)nc3c2)ccn1 (stereo not drawn) [Compound 76, 6-(2,6-dimethylmorpholino)-2-methyl-N-(4-(5-(2-methylpyridin-4-ylamino)-1H-benzo[d]imidazol-2-yl)phenyl)quinolin-4-amine]	< 50 nM	
Cc1cc(Nc2ccc(C(=O)Nc3cccc(Oc4ccncc4)c3)cc2)c2ccccc2n1 [Compound 15, 4-((2-methylquinolin-4-yl)amino)-N-(3-(pyridin-4-yloxy)phenyl)benzamide]		< 2000 nM
